The values that follow come from US12486278B2, “MASP-2 inhibitors and methods of use” (Omeros Corporation, priority 2019, dated 2025).

Usually Ki stands for the dissociation constant of the complex between target and ligand, obtained from inhibition or displacement.

Counter-ions that a name gives are not always drawn. Some results are limits rather than exact numbers.

This experiment deals with T1, MASP-2 (CCP1-CCP2-SP) (Homo sapiens, UniProt O00187).
T1 construct: 15 μL of Enzyme MASP-2 (CCP1-CCP2-SP) in Assay Buffer
T1 sequence (O00187 445-686 limits assumed): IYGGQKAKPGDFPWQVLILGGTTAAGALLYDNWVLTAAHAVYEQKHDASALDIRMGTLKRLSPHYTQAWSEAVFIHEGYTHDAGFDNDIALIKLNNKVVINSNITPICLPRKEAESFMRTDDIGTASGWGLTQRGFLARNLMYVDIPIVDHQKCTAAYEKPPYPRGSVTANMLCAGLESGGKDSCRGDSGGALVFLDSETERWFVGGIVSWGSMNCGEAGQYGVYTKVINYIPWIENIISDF
T1 sequence (O00187 298-444 partner limits assumed): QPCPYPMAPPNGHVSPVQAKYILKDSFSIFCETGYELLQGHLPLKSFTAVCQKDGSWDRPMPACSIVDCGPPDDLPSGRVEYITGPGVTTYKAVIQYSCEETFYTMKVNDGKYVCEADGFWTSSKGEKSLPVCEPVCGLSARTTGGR
The experiment is described as follows: Enzymatic Assay for MASP-2 (fluorogenic substrate). To be noted: fluorogenic substrate based on C2 cleavage site; room temperature, 20 min; 20 mM HEPES pH 7.4, 140 mM NaCl, 0.1% Tween 20. The class given is biochemical. On the procedure: The MASP-2 assay utilizes a fluorogenic substrate, based on the cleavage site for its natural substrate C2. The assay is run at room temperature in an assay buffer containing 20 mM HEPES, pH 7.4, 140 mM NaCl and 0.1% Tween 20. Assay parameters are adjusted such that the assay is linear with respect to time, enzyme, and substrate concentrations. Under these optimized assays conditions, IC50 values are equivalent to Ki values, except in a few cases of “tight binding” inhibitors. Cases of “tight binding” or possible “slow binding” inhibitors are handled by the methods described in Copeland R. A. (2013) Evaluation of Enzyme Inhibitors in Drug Discovery. 2nd Ed., John Wiley and Sons, Inc., Chapters 5-7.
The MASP-2 assay protocol is carried out as follows. Test compounds are serially diluted in DMSO and then 100 nL of each dilution is transferred to the assay plate(s). 10 μL of Assay Buffer is added, followed by 15 μL of Enzyme MASP-2 (CCP1-CCP2-SP) in Assay Buffer. 15 μL of Substrate in Assay Buffer is then added and mixed to start the reactions. After 20 min at room temperature, 15 μL of a stop solution (0.1 M acetic acid) is added, mixed and the plates are read on a SpectraMax i3x Microplate Reader and exported as Excel files. Each assay plate included a “no inhibitor” (DMSO Only) control, a “no enzyme” control and a reference inhibitor control. % Activity values=100*(average test comp. fluorescence−average “no enzyme” fluorescence)/(average “DMSO only” fluorescence−average “no enzyme” fluorescence). IC50 and Ki values are very reproducible, falling well within ±2-fold.
`Cc1cccc(C2CN[C@@H](C(=O)N[C@@H](C)C(=O)NCc3ccc(C(=N)N)cc3)C2)c1` (single isomer, unassigned) [Compound I-14, N-(1-((4-Carbamimidoylbenzyl)amino)-1-oxopropan-2-yl)-4-(m-tolyl)pyrrolidine-2-carboxamide]: the Ki is under 500 nM.
The same measure for `CC(NC(=O)[C@H]1C[C@@H](c2ccccc2)CCN1CC(=O)O)C(=O)NCc1cc2cnccc2[nH]1` (stereo in doubt) [Compound I-104, 2-((2R,4S)-2-(((R)-1-(((1H-pyrrolo[3,2-c]pyridin-2-yl)methyl)amino)-1-oxopropan-2-yl)carbamoyl)-4-phenylpiperidin-1-yl)acetic acid di-trifluoroacetate]: under 500 nM; for `CC(NC(=O)[C@H]1C[C@@H](c2ccccc2)CCN1CC(=O)O)C(=O)NCc1cc2cnccc2[nH]1` (stereo in doubt) [Compound I-105, 2-((2R,4S)-2-(((S)-1-(((1H-pyrrolo[3,2-c]pyridin-2-yl)methyl)amino)-1-oxopropan-2-yl)carbamoyl)-4-phenylpiperidin-1-yl)acetic acid di-trifluoroacetate]: under 500 nM.
Molecule `C[C@H](NC(=O)[C@H]1C[C@H](c2ccccc2)CN1)C(=O)NCc1cc2c(Br)cncc2[nH]1` [Compound I-1, (2R,4R)—N—((S)-1-(((4-bromo-1H-pyrrolo[2,3-c]pyridin-2-yl)methyl)amino)-1-oxopropan-2-yl)-4-phenylpyrrolidine-2-carboxamide di-trifluoroacetate] had a Ki of over 10000 nM.
For `C[C@H](NC(=O)[C@H]1C[C@H](Cc2ccc(F)c(Cl)c2)CN1)C(=O)NCc1cc2cnccc2[nH]1` [Compound I-2, (2R,4S)—N—((S)-1-(((1H-Pyrrolo[3,2-C]Pyridin-2-Yl)Methyl)Amino)-1-Oxopropan-2-Yl)-4-(3-Chloro-4-Fluorobenzyl)Pyrrolidine-2-Carboxamide Di-Trifluoroacetate], the Ki was under 500 nM.
Turning to `C[C@H](NC(=O)[C@H]1C[C@H](c2ccccc2)CN1)C(=O)NCc1cc2ccncc2[nH]1` [Compound I-3, (2R,4R)—N—((S)-1-(((1H-pyrrolo[2,3-c]pyridin-2-yl)methyl)amino)-1-oxopropan-2-yl)-4-phenylpyrrolidine-2-carboxamide di-trifluoroacetate], the Ki was in the range of 2500 to 10000 nM.
In turn, `C[C@H](NC(=O)[C@H]1C[C@H](c2ccccc2)CN1)C(=O)NCc1nc2c(Cl)cccc2s1` [Compound I-4, (2R,4R)—N—((S)-1-(((4-Chlorobenzo[D]Thiazol-2-Yl)Methyl)Amino)-1-Oxopropan-2-Yl)-4-Phenylpyrrolidine-2-Carboxamide Trifluoroacetate] displayed a Ki of 500 to 2500 nM.
The same measure for `C[C@H](NC(=O)[C@H]1C[C@H](Cc2cccc(Cl)c2)CN1)C(=O)NCc1cc2cnccc2[nH]1` [Compound I-5, (2R,4S)—N—((S)-1-(((1H-Pyrrolo[3,2-c]pyridin-2-yl)methyl)amino)-1-oxopropan-2-yl)-4-(3-chlorobenzyl)pyrrolidine-2-carboxamide di-trifluoroacetate]: under 500 nM.
In the case of `C[C@H](NC(=O)[C@H]1C[C@H](c2ccccc2)CN1)C(=O)NCc1cc2ncccc2[nH]1` [Compound I-6, (2R,4R)—N—((S)-1-(((1H-Pyrrolo[3,2-b]pyridin-2-yl)methyl)amino)-1-oxopropan-2-yl)-4-phenylpyrrolidine-2-carboxamide di-trifluoroacetate] it was 500 to 2500 nM; in that of `C[C@H](NC(=O)[C@H]1C[C@H](c2ccccc2)CN1)C(=O)NCc1[nH]c2ccncc2c1F` [Compound I-7, (2R,4R)—N—((S)-1-(((3-Fluoro-1H-Pyrrolo[3,2-C]Pyridin-2-Yl)Methyl)Amino)-1-Oxopropan-2-Yl)-4-Phenylpyrrolidine-2-Carboxamide Di-Trifluoroacetate], under 500 nM; in that of `C[C@H](NC(=O)[C@H]1C[C@H](C2(c3ccccc3)CC2)CN1)C(=O)NCc1cc2cnccc2[nH]1` [Compound I-8, (2R,4R)—N—((S)-1-(((1H-Pyrrolo[3,2-C]Pyridin-2-Yl)Methyl)Amino)-1-Oxopropan-2-Yl)-4-(1-Phenylcyclopropyl)Pyrrolidine-2-Carboxamide Di-Trifluoroacetate], under 500 nM.
Consider `C[C@H](NC(=O)[C@H]1C[C@H](Cc2ccccc2)CN1)C(=O)NCc1ccc2c(c1)CNC2` [Compound I-9, (2R,4S)-4-Benzyl-N—((S)-1-((Isoindolin-5-Ylmethyl)Amino)-1-Oxopropan-2-Yl)Pyrrolidine-2-Carboxamide Di-Trifluoroacetate], for which the Ki was under 500 nM.
Molecule `C[C@H](NC(=O)[C@H]1C[C@H](Cc2ccccc2)CN1)C(=O)NCc1cnc2scc(Cl)c2c1` [Compound I-11, (2R,4S)-4-Benzyl-N—((S)-1-(((3-Chlorothieno[2,3-B]Pyridin-5-Yl)Methyl)Amino)-1-Oxopropan-2-Yl)Pyrrolidine-2-Carboxamide Trifluoroacetate] yielded a Ki of under 500 nM.
The same measure for `Cc1nc(N)ccc1CNC(=O)[C@@H]1COCCN1C(=O)[C@H]1C[C@H](Cc2ccccc2)CN1` [Compound I-12, (S)—N-((6-Amino-2-Methylpyridin-3-Yl)Methyl)-4-((2R,4S)-4-Benzylpyrrolidine-2-Carbonyl)Morpholine-3-Carboxamide Di-Trifluoroacetate]: 500 to 2500 nM; for `Cc1cccc([C@@H]2CN[C@@H](C(=O)N[C@@H](C)C(=O)NCc3ccc(C(=N)N)cc3)C2)c1` [Compound I-13, (2R,4R)—N—((S)-1-((4-Carbamimidoylbenzyl)Amino)-1-Oxopropan-2-Yl)-4-(M-Tolyl)Pyrrolidine-2-Carboxamide]: under 500 nM; for `C[C@H](NC(=O)[C@H]1C[C@@H](c2cccc(C(N)=O)c2)CN1)C(=O)NCc1ccc(C(=N)N)cc1` [Compound I-15]: under 500 nM.
Turning to `COc1cccc([C@@H]2CN[C@@H](C(=O)N[C@@H](C)C(=O)NCc3ccc(C(=N)N)cc3)C2)c1` [Compound I-16, (2R,4R)—N—((S)-1-((4-Carbamimidoylbenzyl)Amino)-1-Oxopropan-2-Yl)-4-(3-Methoxyphenyl)Pyrrolidine-2-Carboxamide Dihydrochloride], the Ki was under 500 nM.
As to `Cc1nc(N)ccc1CNC(=O)[C@H](C)NC(=O)[C@H]1C[C@H](Cc2cc(Br)c(Br)s2)CN1` [Compound I-17, (2R,4R)—N—((S)-1-(((6-Amino-2-Methylpyridin-3-Yl)Methyl)Amino)-1-Oxopropan-2-Yl)-4-((4,5-Dibromothiophen-2-Yl)Methyl)Pyrrolidine-2-Carboxamide Di-Trifluoroacetate], the Ki is under 500 nM.
The same measure for `Cc1nc(N)ccc1CNC(=O)[C@H](C)NC(=O)[C@H]1C[C@H](Cc2cc(Cl)c(Cl)s2)CN1` [Compound I-18, (2R,4R)—N—((S)-1-(((6-Amino-2-Methylpyridin-3-Yl)Methyl)Amino)-1-Oxopropan-2-Yl)-4-((4,5-Dichlorothiophen-2-Yl)Methyl)Pyrrolidine-2-Carboxamide Di-Trifluoroacetate]: under 500 nM; for `C[C@H](NC(=O)[C@H]1C[C@H](Cc2cc(Br)c(Cl)s2)CN1)C(=O)NCc1cnc2c(c1)c(Cl)cn2C` [Compound I-19, (2R,4R)-4-((4-Bromo-5-Chlorothiophen-2-Yl)Methyl)-N—((S)-1-(((3-Chloro-1-Methyl-1H-Pyrrolo[2,3-B]Pyridin-5-Yl)Methyl)Amino)-1-Oxopropan-2-Yl)Pyrrolidine-2-Carboxamide Trifluoroacetate]: under 500 nM.
In the case of `C[C@H](NC(=O)[C@H]1C[C@H](Cc2cc(Cl)c(Cl)s2)CN1)C(=O)NCc1cnc2c(c1)c(Cl)cn2C` [Compound I-20, Trifluoroacetate] it was under 500 nM; in that of `C[C@H](NC(=O)[C@H]1C[C@H](Cc2cc(Br)c(Cl)s2)CN1)C(=O)NCc1cc2cnccc2[nH]1` [Compound I-21, (2R,4R)—N—((S)-1-(((1H-Pyrrolo[3,2-C]Pyridin-2-Yl)Methyl)Amino)-1-Oxopropan-2-Yl)-4-((4-Bromo-5-Chlorothiophen-2-Yl)Methyl)Pyrrolidine-2-Carboxamide Di-Trifluoroacetate], under 500 nM.
Regarding `C[C@H](NC(=O)[C@H]1C[C@H](Cc2cc(Cl)c(Cl)s2)CN1)C(=O)NCc1cc2cnccc2[nH]1` [Compound I-22, (2R,4R)—N—((S)-1-(((1H-Pyrrolo[3,2-C]Pyridin-2-Yl)Methyl)Amino)-1-Oxopropan-2-Yl)-4-((4,5-Dichlorothiophen-2-Yl)Methyl)Pyrrolidine-2-Carboxamide Di-Trifluoroacetate], the Ki was under 500 nM.
In the case of `C[C@H](NC(=O)[C@H]1C[C@H](Cc2ccc(F)c(Cl)c2)CN1)C(=O)NCc1ccc(C(=N)N)cc1` [Compound I-23, (2R,4S)—N—((S)-1-((4-Carbamimidoylbenzyl)Amino)-1-Oxopropan-2-Yl)-4-(3-Chloro-4-Fluorobenzyl)Pyrrolidine-2-Carboxamide Di-Trifluoroacetate] it was under 500 nM.
